The target of this experiment is T1, α5-GABAA receptor (Homo sapiens, UniProt P18507+P31644).
T1 construct: expressed in transfected cells; host or cells: HEK293, monoclonal stably transfected line
In words: Cell-level screening: whole cell patch clamp, inverse agonist efficacy on α5-GABAA receptor expressed in HEK293. The following applies: drug 100 nM, GABA 0.05 μM, HEK293 expressing α5, β3 and γ2 subunits, clamped at −60 mV; read-out: Compound inverse agonist efficacy %. In kind it is cell-based. As to the method: The inventors used electrophysiological methods to determine the inverse agonist efficacy of the drugs to be tested on the α5-GABAA receptor. The detailed methods are as follows:
Different subunits of GABAA receptors were expressed in human […] cell line 293 (HEK293) cell line. The cells were cultured in a culture medium and used as a cell model for screening pain inhibiting drugs. The α, β and γ subunits are necessary to form complete functional GABAA receptors. In this embodiment, the inventors had established the following cell model: α5 subunit (see GenBank Accession No. NM_000810.3 for protein sequences), β3 subunit (see GenBank Accession No. NM_000814.5 for protein sequences) and γ2 subunit (see GenBank Accession No. NM_000816.3 for protein sequences) were expressed in HEK293 cell line at the same time, followed by screening the monoclonal cell line. This cell line contained α5-GABAA receptor and had complete GABAA receptor function.
The monoclonal stably transfected HEK-293 cells expressing α5-GABAA receptor were cultured in 10 cm culture dishes and passaged when the cells grew to 80%-90%. During passaging, the culture medium was aspirated first, then 3 mL of DPBS phosphate buffer salt (Gibco™) was added to the culture dishes, and the culture dishes were shaken slightly, and DPBS was aspirated. 1 mL of trypsin (TrypLE Express, Gibco™) was added thereto, and the cells were digested at 37° C. for 1-2 minutes. Then 3 mL of complete medium (DMEM+10% FBS (Gibco™)) was added and the cells at the bottom of the culture dishes were dispersed. The cell suspension were transferred to a 15 mL centrifugal tube (Corning) and then centrifuged at 200 g for 3 minutes. The supernatant was discarded, 4 mL of complete medium was added, and the cells were gently blown and resuspended for use. If cell passaging was performed, the cell suspension was diluted at a ratio of 1:5 or 1:10. If cells for electrophysiology use were prepared, the cell suspension was diluted in a ratio of 1:12, then added into a 24-well dish (Corning™) in which glass slides were placed and pretreated with Poly-D-Lysine, and the cells were tested after being attached to the walls. The culture time of cells for electrophysiology use was no more than 48 hours.
Drug concentration setting: the final drug concentration used in drug screening was 100 nM, and the GABA concentration range was 0.05 μM. The final drug concentrations used in the dose-inversal agonistic efficiency (%) test were 0.3 nM, 3 nM, 10 nM, 30 nM, 100 nM and 300 nM. The whole cell patch clamp technique was used in electrophysiological experiments, which could refer to the literature (I. Lecker, Y. Yin, D. S. Wang and B. A. Orser, (2013) Potentiation of GABAA receptor activity by volatile anaesthetics is reduced by α5-GABAA receptor-preferring inverse agonists, British Journal of Anaesthesia 110 (S1): i73-i81). The components of extracellular solution (ECS) for electrophysiology use were as follows: 150 mM NaCl, 5 mM KCl, 2.5 mM CaCl2), 1 mM MgCl2, 10 mM HEPES and 10 mM glucose (pH 7.4); electrode internal solutions for electrophysiology use were as follows: 140 mM CsCl, 11 mM EGTA, 10 mM HEPES, 2 mM CaCl2), 1 mM MgCl2, 4 mM MgATP, 2 mM TEA (pH 7.3). The signal acquisition used an EPC-10 amplifier and the PatchMaster software (HEKA). The recording electrode was drawn using borosilicate glass, and the electrode resistance was 4 to 6 MΩ. The ALA-VC3-8PP™ system was used for extracellular administration. Separate cells that grew independently was selected for recording. During recording, the cell membrane potential was clamped at −60 mV. During experiment, an extracellular solution was applied to the cells for about 20 seconds. When the baseline reached to a stable state, the extracellular solution was switched to GABA. Then the current induced by GABA could be detected. […]
(In general: Patch clamp records ionic current or voltage across a cell membrane.)

T1 sequence (P31644 32-462): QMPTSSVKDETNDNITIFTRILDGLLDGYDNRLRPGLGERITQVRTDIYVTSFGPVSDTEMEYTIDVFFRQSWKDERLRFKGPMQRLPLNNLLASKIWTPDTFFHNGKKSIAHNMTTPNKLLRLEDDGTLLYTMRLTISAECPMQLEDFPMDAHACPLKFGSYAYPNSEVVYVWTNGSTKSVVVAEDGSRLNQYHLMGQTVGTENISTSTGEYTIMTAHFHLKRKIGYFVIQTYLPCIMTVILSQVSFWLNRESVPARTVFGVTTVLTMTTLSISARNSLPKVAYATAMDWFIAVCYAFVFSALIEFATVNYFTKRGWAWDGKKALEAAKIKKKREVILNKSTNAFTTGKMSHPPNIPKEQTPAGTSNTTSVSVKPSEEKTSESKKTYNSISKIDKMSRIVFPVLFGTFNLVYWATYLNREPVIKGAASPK
T1 sequence (P28472 26-473 partner): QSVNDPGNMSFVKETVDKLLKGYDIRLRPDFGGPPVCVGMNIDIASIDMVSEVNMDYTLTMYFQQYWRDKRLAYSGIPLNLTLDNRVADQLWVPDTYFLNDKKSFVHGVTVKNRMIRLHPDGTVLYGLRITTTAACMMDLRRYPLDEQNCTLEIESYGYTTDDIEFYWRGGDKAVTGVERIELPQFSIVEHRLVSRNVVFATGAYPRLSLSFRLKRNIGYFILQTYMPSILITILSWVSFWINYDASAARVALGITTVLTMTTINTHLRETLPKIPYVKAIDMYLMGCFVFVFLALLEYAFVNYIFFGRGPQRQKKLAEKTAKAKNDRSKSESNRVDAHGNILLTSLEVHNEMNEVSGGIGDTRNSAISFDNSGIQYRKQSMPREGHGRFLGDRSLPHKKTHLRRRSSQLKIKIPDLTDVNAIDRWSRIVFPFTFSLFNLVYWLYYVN
T1 sequence (P18507 40-467 isoform P18507-1 limits assumed): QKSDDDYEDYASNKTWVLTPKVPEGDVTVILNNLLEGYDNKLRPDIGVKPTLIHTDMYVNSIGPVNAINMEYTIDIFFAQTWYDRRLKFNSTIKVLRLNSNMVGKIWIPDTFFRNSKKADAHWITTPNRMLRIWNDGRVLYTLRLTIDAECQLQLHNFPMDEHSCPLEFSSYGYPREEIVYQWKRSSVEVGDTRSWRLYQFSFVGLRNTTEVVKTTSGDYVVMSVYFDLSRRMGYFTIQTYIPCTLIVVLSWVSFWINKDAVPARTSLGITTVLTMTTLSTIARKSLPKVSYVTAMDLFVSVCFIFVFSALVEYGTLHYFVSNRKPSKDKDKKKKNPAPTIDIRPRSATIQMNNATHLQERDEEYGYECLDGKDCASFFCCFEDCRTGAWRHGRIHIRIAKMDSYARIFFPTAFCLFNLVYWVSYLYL

In the case of `COc1cc2nnc(-c3cc(C)on3)n2nc1OCc1ccc2c(n1)CCN([C@H]1CCOC1)C2` (single isomer, unassigned) [Embodiment 181], the inhibition at 0.1 µM turned out to be 59%.

`COc1cc2nnc(-c3cc(C)on3)n2nc1OCc1ccc2c(n1)CCN([C@@H]1CCOC1)C2` (single isomer, unassigned) [Embodiment 182]: the inhibition at 0.1 µM was found to be 53.8%.

Consider `COc1cc2nnc(-c3cc(C)on3)n2nc1OCc1cccc(N2CCOCC2)n1` [Embodiment 2], for which the inhibition at 0.1 µM was 26.6%.

For the compound `COc1cc2nnc(-c3cc(C)on3)n2nc1OCc1cccc(N(C)C)n1` [Embodiment 3], the inhibition at 0.1 µM stood at 37.1%.

As to `COc1cc2nnc(-c3cc(C)on3)n2nc1OCc1cccc(F)n1` [Embodiment 4], the inhibition at 0.1 µM was 40.8%.

As for `COc1cc2nnc(-c3cc(C)on3)n2nc1OCc1ccccc1C#N` [Embodiment 5], the inhibition at 0.1 µM stood at 31.5%.

`COc1cc2nnc(-c3cc(C)on3)n2nc1OCc1ccc(OCCCC#N)cn1` [Embodiment 8]: the inhibition at 0.1 µM turned out to be 57.8%.

Turning to `COCCOc1ccnc(COc2nn3c(-c4cc(C)on4)nnc3cc2OC)c1` [Embodiment 10], the inhibition at 0.1 µM stood at 37.1%.

In the case of `COc1cc2nnc(-c3cc(C)on3)n2nc1OCc1ccc(C(=O)NCC(F)(F)F)cn1` [Embodiment 11, 6-(((7-Methoxy-3-(5-methylisoxazol-3-yl)-[1,2,4]triazolo[4,3-b]pyridazin-6-yl)oxy)methyl)-N-(2,2,2-trifluoroethyl)nicotinamide], the inhibition at 0.1 µM was 35.4%.

As to `CCNC(=O)c1ccc(COc2nn3c(-c4cc(C)on4)nnc3cc2OCC)nc1` [Embodiment 12, 6-(((7-Ethoxy-3-(5-methylisoxazol-3-yl)-[1,2,4]triazolo[4,3-b]pyridazin-6-yl)oxy)methyl)-N-ethylnicotinamide], the inhibition at 0.1 µM came out at 29.6%.

For the compound `COc1cc2nnc(-c3cc(C)on3)n2nc1OCc1ccc(C2=CCCCC2)cn1` [Embodiment 13], the inhibition at 0.1 µM is 29%.

Turning to `Cc1cc(-c2nnc3cc(OCC4CC4)c(OCc4ccccn4)nn23)no1` [Embodiment 14], the inhibition at 0.1 µM is 19.4%.

On to `COCCCOc1ccc(COc2nn3c(-c4cc(C)on4)nnc3cc2OC)nn1` [Embodiment 15], for which the inhibition at 0.1 µM was 45.8%.

For the compound `COc1cc2nnc(-c3cc(C)on3)n2nc1OCc1cccc(C)n1` [Embodiment 16], the inhibition at 0.1 µM turned out to be 31.1%.

For `COc1cc2nnc(-c3cc(C)on3)n2nc1OCc1ncccc1Cl` [Embodiment 17], the inhibition at 0.1 µM is 47.7%.

Take `COc1cc2nnc(-c3cc(C)on3)n2nc1OCc1cccc(Cl)n1` [Embodiment 18]: the inhibition at 0.1 µM came to 23%.

In the case of `COc1cc2nnc(-c3cc(C)on3)n2nc1OCc1ccc(Cl)cn1` [Embodiment 20], the inhibition at 0.1 µM is 42.9%.

On to `CCOc1cccc(COc2nn3c(-c4cc(C)on4)nnc3cc2OC)n1` [Embodiment 22], for which the inhibition at 0.1 µM worked out at 22.1%.

On to `CCOc1ccc(COc2nn3c(-c4cc(C)on4)nnc3cc2OC)nc1` [Embodiment 23], for which the inhibition at 0.1 µM was determined as 41.2%.

As for `COc1cc2nnc(-c3cc(C)on3)n2nc1OCc1ccc(OC(F)F)cn1` [Embodiment 24], the inhibition at 0.1 µM is 35%.

For the compound `COc1cc2nnc(-c3cc(C)on3)n2nc1OCc1ccc(OC(C)C)cn1` [Embodiment 25], the inhibition at 0.1 µM was found to be 34.1%.

`COCCOc1ccc(COc2nn3c(-c4cc(C)on4)nnc3cc2OC)nn1` [Embodiment 26]: the inhibition at 0.1 µM worked out at 41.7%.

Take `COc1cc2nnc(-c3cc(C)on3)n2nc1OCc1ccc(OCCCC#N)nn1` [Embodiment 27]: the inhibition at 0.1 µM stood at 42%.

`COc1cc2nnc(-c3cc(C)on3)n2nc1OCc1cc(C#N)ccn1` [Embodiment 29]: the inhibition at 0.1 µM is 66.9%.

For the compound `COc1cc2nnc(-c3cc(C)on3)n2nc1OCc1ncccc1C#N` [Embodiment 30], the inhibition at 0.1 µM was determined as 29.4%.

In the case of `COc1cc2nnc(-c3cc(C)on3)n2nc1OCc1ccc(C2CC2)cn1` [Embodiment 34], the inhibition at 0.1 µM was 38%.

Regarding `CCNC(=O)c1ccc(COc2nn3c(-c4cc(C)on4)nnc3cc2OC)nc1` [Embodiment 35], the inhibition at 0.1 µM stood at 39.3%.

In the case of `COc1ccc(COc2nn3c(-c4cc(C)on4)nnc3cc2OC)nc1` [Embodiment 37], the inhibition at 0.1 µM came out at 42.1%.

Take `COc1cccc(COc2nn3c(-c4cc(C)on4)nnc3cc2OC)n1` [Embodiment 38]: the inhibition at 0.1 µM is 32%.

In the case of `COc1cc2nnc(-c3cc(C)on3)n2nc1OCc1cccc(C#N)n1` [Embodiment 40], the inhibition at 0.1 µM was 39%.

`COc1cc2nnc(-c3cc(C)on3)n2nc1OCc1ccc(C#N)cn1` [Embodiment 41]: the inhibition at 0.1 µM came to 39.4%.

Take `COc1cc2nnc(-c3cc(C)on3)n2nc1OCc1ccc(C)cn1` [Embodiment 42]: the inhibition at 0.1 µM was 44.9%.

As for `COc1cnc(COc2nn3c(-c4cc(C)on4)nnc3cc2OC)cn1` [Embodiment 44], the inhibition at 0.1 µM amounted to 44.8%.

Regarding `COc1cc2nnc(-c3cc(C)on3)n2nc1OCc1cccc(C(F)(F)F)n1` [Embodiment 45], the inhibition at 0.1 µM was determined as 42.4%.

Take `COc1cc2nnc(-c3cc(CO)on3)n2nc1OCc1ccccn1` [Embodiment 46, (3-(7-Methoxy-6-(pyridin-2-ylmethoxy)-[1,2,4]triazolo[4,3-b]pyridazin-3-yl]isoxazol-5-yl)methanol]: the inhibition at 0.1 µM is 48.7%.

Regarding `COCc1cc(-c2nnc3cc(OC)c(OCc4ccc(OC)cn4)nn23)no1` [Embodiment 48, 3-(7-Methoxy-6-((5-methoxypyridin-2-yl)methoxy)-[1,2,4]triazolo[4,3-b]pyridazine-3-yl)-5-(methoxymethyl)isoxazole], the inhibition at 0.1 µM was found to be 34.7%.

As to `COc1ccnc(COc2nn3c(-c4cc(C)on4)nnc3cc2OC)c1` [Embodiment 51], the inhibition at 0.1 µM is 46.2%.

On to `COc1cccnc1COc1nn2c(-c3cc(C)on3)nnc2cc1OC` [Embodiment 52], for which the inhibition at 0.1 µM stood at 38%.

In the case of `COc1cc2nnc(-c3cc(C)on3)n2nc1OCc1ccc(S(C)(=O)=O)cn1` [Embodiment 53], the inhibition at 0.1 µM turned out to be 48.8%.

Regarding `Cc1cc(-c2nnc3cc(OC(F)F)c(OCc4ccccn4)nn23)no1` [Embodiment 54], the inhibition at 0.1 µM was determined as 43.5%.

On to `COc1cc2nnc(-c3cc(C)on3)n2nc1OCc1ccc(C2CCC2)cn1` [Embodiment 56], for which the inhibition at 0.1 µM was found to be 21.6%.

On to `COc1cc2nnc(-c3cc(C)on3)n2nc1OCc1cccc(C2CC2)n1` [Embodiment 57], for which the inhibition at 0.1 µM came out at 17.6%.

Consider `COc1cc2nnc(-c3cc(C)on3)n2nc1OCc1ccc(F)cn1` [Embodiment 58], for which the inhibition at 0.1 µM came out at 38.5%.

Turning to `COc1cc2nnc(-c3cc(C)on3)n2nc1OCc1ccc(C(F)(F)F)cn1` [Embodiment 59], the inhibition at 0.1 µM turned out to be 35.7%.

Turning to `COc1cnc(COc2nn3c(-c4cc(C)on4)nnc3cc2OC)cc1OC` [Embodiment 60], the inhibition at 0.1 µM was 45.8%.

Regarding `COc1cc2nnc(-c3cc(C)on3)n2nc1OCc1ccc(OC(F)(F)F)cn1` [Embodiment 61], the inhibition at 0.1 µM stood at 45.8%.

For the compound `COc1ccc(C(F)(F)F)nc1COc1nn2c(-c3cc(C)on3)nnc2cc1OC` [Embodiment 62], the inhibition at 0.1 µM is 35.7%.

Regarding `COc1cc2nnc(-c3cc(C)on3)n2nc1OCc1ccn2nccc2n1` [Embodiment 64], the inhibition at 0.1 µM was 40%.

Regarding `COc1cc2nnc(-c3cc(C)on3)n2nc1OCc1ccnc2ccnn12` [Embodiment 65], the inhibition at 0.1 µM is 55.4%.

These data come from US12637468B2, “Substituted [1,2,4]triazolo[4,3-b]pyridazines as GABAA receptor modulators” (SHANGHAI SIMR BIOTECHNOLOGY CO., LTD., priority 2019, dated 2026).
